Key:
[1] = target: T1, cloned human δ receptor (Homo sapiens, UniProt P41143); experiment: GTP[γ]35S binding functional assay, HEK-293S membranes expressing cloned human δ receptor (HDELTA); assay type: biochemical
T1 construct: expressed in transfected cells; host or cells: human 293S (HEK-293S) cells, geneticin-selected
Method: (§1) • A. Human 293S cells expressing cloned human μ, δ, and κ receptors and neomycin resistance were grown in suspension at 37° C. and 5% CO2 in shaker flasks containing calcium-free DMEM10% FBS, 5% BCS, 0.1% Pluronic F-68, and 600 μg/ml geneticin. • B. Mouse and rat brains were weighed and rinsed in ice-cold PBS (containing 2.5 mM EDTA, pH 7.4). The brains were homogenized with a polytron for 15 sec (mouse) or 30 sec (rat) in ice-cold lysis buffer (50 mM Tris, pH 7.0, 2.5 mM EDTA, with phenylmethylsulfonyl fluoride added just prior use to […] from a 0.5M stock in DMSO:ethanol). Membrane Preparation
Cells were pelleted and resuspended in lysis buffer (50 mM Tris, pH 7.0, 2.5 mM EDTA, with PMSF added just prior to use to 0.1 mM from a 0.1 M stock in ethanol), incubated on ice for 15 min, then homogenized with a polytron for 30 sec. The suspension was spun at 1000 g (max) for 10 min at 4° C. The supernatant was saved on ice and the pellets resuspended and spun as before. The supernatants from both spins were combined and spun at 46,000 g(max) for 30 min. The pellets were resuspended in cold Tris buffer (50 mM Tris/Cl, pH 7.0) and spun again. The final pellets were resuspended in membrane buffer (50 mM Tris, 0.32 M sucrose, pH 7.0). Aliquots (1 ml) in polypropylene tubes were frozen in dry ice/ethanol and stored at −70° C. until use. The protein concentrations were determined by a modified Lowry assay with sodium dodecyl sulfate.
(§2) The agonist activity of the compounds is measured by determining the degree to which the compounds receptor complex activates the binding of GTP to G-proteins to which the receptors are coupled. In the GTP binding assay, GTP[γ]^35S is combined with test compounds and membranes from HEK-293S cells expressing the cloned human opioid receptors or from homogenised rat and mouse brain. Agonists stimulate GTP[γ]^35S binding in these membranes. The EC50 and Emax values of compounds are determined from dose-response curves. Right shifts of the dose response curve by the delta antagonist naltrindole are performed to verify that agonist activity is mediated through delta receptors.

[2] = target: T2, delta receptors, mouse brain membranes (Mus musculus, UniProt P32300); experiment: GTP[γ]35S binding functional assay, mouse brain membranes; assay type: biochemical
T2 construct: from tissue; host or cells: mouse brain membranes
Method: as §1, §2

[3] = target: T1, cloned human δ receptor; experiment: Binding assay, membranes of human 293S cells expressing cloned human δ receptor (HDELTA); conditions: radioligand displacement
[4] = target: T3, delta receptors, rat brain membranes (Rattus norvegicus, UniProt P33533); experiment: GTP[γ]35S binding functional assay, rat brain membranes; assay type: biochemical; conditions: GTPγ35S binding, maximal stimulated binding with 3 μM SNC-80
T3 construct: Rat brain membranes are thawed at 37° C; from tissue; host or cells: rat brain membranes
Method: as §1, §2
Rat brain membranes are thawed at 37° C., passed 3 times through a 25-gauge blunt-end needle and diluted in the GTPγS binding (50 mM Hepes, 20 mM NaOH, 100 mM NaCl, 1 mM EDTA, 5 mM MgCl2, pH 7.4, Add fresh: 1 mM DTT, 0.1% BSA). 120 μM GDP final is added membranes dilutions. […] The basal and maximal stimulated binding are determined in absence and presence of 3 μM SNC-80

T2 sequence (P32300 whole entry): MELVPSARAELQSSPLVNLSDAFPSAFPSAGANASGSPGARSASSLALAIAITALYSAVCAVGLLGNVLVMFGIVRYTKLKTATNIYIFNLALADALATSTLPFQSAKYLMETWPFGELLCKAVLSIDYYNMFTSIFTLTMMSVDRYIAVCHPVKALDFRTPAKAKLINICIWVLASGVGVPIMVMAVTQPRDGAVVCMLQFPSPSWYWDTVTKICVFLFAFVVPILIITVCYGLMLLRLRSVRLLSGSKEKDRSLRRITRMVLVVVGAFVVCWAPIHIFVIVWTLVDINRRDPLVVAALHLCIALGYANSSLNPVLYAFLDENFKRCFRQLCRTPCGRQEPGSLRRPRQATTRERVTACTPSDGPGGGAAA
T1 sequence (P41143 whole entry): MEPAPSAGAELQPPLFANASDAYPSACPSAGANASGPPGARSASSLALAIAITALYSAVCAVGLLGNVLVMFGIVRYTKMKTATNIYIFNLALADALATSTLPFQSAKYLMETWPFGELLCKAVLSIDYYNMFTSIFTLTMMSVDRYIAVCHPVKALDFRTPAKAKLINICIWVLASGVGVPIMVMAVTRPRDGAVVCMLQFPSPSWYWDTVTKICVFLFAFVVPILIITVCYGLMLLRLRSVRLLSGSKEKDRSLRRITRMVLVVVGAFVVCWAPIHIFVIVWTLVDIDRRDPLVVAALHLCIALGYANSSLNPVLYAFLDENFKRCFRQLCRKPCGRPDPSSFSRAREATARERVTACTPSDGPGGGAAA
T3 sequence (P33533 whole entry): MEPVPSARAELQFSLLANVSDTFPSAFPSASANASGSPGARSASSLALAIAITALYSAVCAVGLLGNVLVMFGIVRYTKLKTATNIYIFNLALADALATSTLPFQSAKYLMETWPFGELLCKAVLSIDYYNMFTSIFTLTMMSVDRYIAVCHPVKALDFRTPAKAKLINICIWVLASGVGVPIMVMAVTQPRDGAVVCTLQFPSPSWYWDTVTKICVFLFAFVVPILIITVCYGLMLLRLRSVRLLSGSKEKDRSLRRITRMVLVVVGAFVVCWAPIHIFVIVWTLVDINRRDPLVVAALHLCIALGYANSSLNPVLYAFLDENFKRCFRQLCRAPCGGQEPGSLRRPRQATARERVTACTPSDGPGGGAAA

CC(C)N(C(=O)c1ccc(C(=C2CCN(Cc3ccccc3)CC2)c2cccc3cccnc23)cc1)C(C)C [Example 1, 4-[1-(1-Benzyl-piperidin-4-ylidene)-1-quinolin-8-yl-methyl]-N,N-diisopropyl-benzamide]
Emax [1]: 96 to 102% | Emax [2]: 100 to 151% | IC50 [3]: 0.78 to 5 nM | Emax [4]: 97 to 144%

CC(C)N(C(=O)c1ccc(C(=C2CCN(Cc3ccccn3)CC2)c2cccc3cccnc23)cc1)C(C)C [Example 2, N,N-Diisopropyl-4-[1-(1-pyridin-2-ylmethyl-piperidin-4-ylidene)-1-quinolin-8-yl-methyl]-benzamide]
Emax [1]: 96 to 102% | Emax [2]: 100 to 151% | IC50 [3]: 0.78 to 5 nM | Emax [4]: 97 to 144%

CC(C)N(C(=O)c1ccc(C(=C2CCN(Cc3ccncc3)CC2)c2cccc3cccnc23)cc1)C(C)C [Example 3, N,N-Diisopropyl-4-[1-(1-pyridin-4-ylmethyl-piperidin-4-ylidene)-1-quinolin-8-yl-methyl]-benzamide]
Emax [1]: 96 to 102% | Emax [2]: 100 to 151% | IC50 [3]: 0.78 to 5 nM | Emax [4]: 97 to 144%

CC(C)N(C(=O)c1ccc(C(=C2CCN(Cc3cccs3)CC2)c2cccc3cccnc23)cc1)C(C)C [Example 4, N,N-Diisopropyl-4-[1-quinolin-8-yl-1-(1-thiophen-2-ylmethyl-piperidin-4-ylidene)-methyl]-benzamide]
Emax [1]: 96 to 102% | Emax [2]: 100 to 151% | IC50 [3]: 0.78 to 5 nM | Emax [4]: 97 to 144%

CC(C)N(C(=O)c1ccc(C(=C2CCN(Cc3ccoc3)CC2)c2cccc3cccnc23)cc1)C(C)C [Example 6, N,N-Diisopropyl-4-[1-quinolin-8-yl-1-(1-furan-3-ylmethyl-piperidin-4-ylidene)-methyl]-benzamide]
Emax [1]: 96 to 102% | Emax [2]: 100 to 151% | IC50 [3]: 0.78 to 5 nM | Emax [4]: 97 to 144%

CC(C)N(C(=O)c1ccc(C(=C2CCN(Cc3ccco3)CC2)c2cccc3cccnc23)cc1)C(C)C [Example 7, N,N-Diisopropyl-4-[1-quinolin-8-yl-1-(1-furan-2-ylmethyl-piperidin-4-ylidene)-methyl]-benzamide]
Emax [1]: 96 to 102% | Emax [2]: 100 to 151% | IC50 [3]: 0.78 to 5 nM | Emax [4]: 97 to 144%

COc1ccc(CN2CCC(=C(c3ccc(C(=O)N(C(C)C)C(C)C)cc3)c3cccc4cccnc34)CC2)cc1 [Example 8, N,N-Diisopropyl-4-{1-[1-(4-methoxy-benzyl)-piperidin-4-ylidene]-1-quinolin-8-yl-methyl}-benzamide]
Emax [1]: 96 to 102% | Emax [2]: 100 to 151% | IC50 [3]: 0.78 to 5 nM | Emax [4]: 97 to 144%

CC(C)N(C(=O)c1ccc(C(=C2CCN(Cc3nccs3)CC2)c2cccc3cccnc23)cc1)C(C)C [Example 9, N,N-Diisopropyl-4-[1-quinolin-8-yl-1-(1-thiazol-2-ylmethyl-piperidin-4-ylidene)-methyl]-benzamide]
Emax [1]: 96 to 102% | Emax [2]: 100 to 151% | IC50 [3]: 0.78 to 5 nM | Emax [4]: 97 to 144%

CC(C)N(C(=O)c1ccc(C(=C2CCN(Cc3ncc[nH]3)CC2)c2cccc3cccnc23)cc1)C(C)C [Example 10, 4-{1-[1-(1H-Imidazol-2-ylmethyl)-piperidin-4-ylidene]-1-quinolin-8-yl-methyl]-N,N-diisopropylbenzamide]
Emax [1]: 96 to 102% | Emax [2]: 100 to 151% | IC50 [3]: 0.78 to 5 nM | Emax [4]: 97 to 144%

CC(C)N(C(=O)c1ccc(C(=C2CCN(Cc3ccc(Br)cc3)CC2)c2cccc3cccnc23)cc1)C(C)C [Example 11]
Emax [1]: 96 to 102% | Emax [2]: 100 to 151% | IC50 [3]: 0.78 to 5 nM | Emax [4]: 97 to 144%
